# Assay results from article PMC10372819 (Acta Pharmaceutica Sinica. B, 2023).
# Key:
# [1] = tested on: WT HIV-1; settings: Selectivity index CC50/EC50 (WT)
# [2] = tested on: HIV-1 mutant Y188L; assay: microbe, parasite or virus in culture; settings: Human immunodeficiency virus 1, MT4, read-out: EC50 Y188L
# [3] = Cytotoxicity in uninfected; settings: human, mock-infected (uninfected) MT-4 cells, CC50, uninfected MT-4 cells, MTT
# [4] = tested on: WT HIV-1; assay: microbe, parasite or virus in culture; settings: Human immunodeficiency virus 1, MT4, read-out: WT EC50
# [5] = tested on: HIV-1 mutant E138K; assay: microbe, parasite or virus in culture; settings: Human immunodeficiency virus 1, MT4, read-out: EC50 E138K
# [6] = tested on: HIV-1 mutant K103N; assay: microbe, parasite or virus in culture; settings: Human immunodeficiency virus 1, MT4, read-out: EC50 K103N
# [7] = tested on: HIV-1 mutant L100I; assay: microbe, parasite or virus in culture; settings: Human immunodeficiency virus 1, MT4, read-out: EC50 L100I
# [8] = target: CYP2D6 (Homo sapiens, UniProt P10635); assay: biochemical
# Sequence of CYP2D6 (P10635 whole entry): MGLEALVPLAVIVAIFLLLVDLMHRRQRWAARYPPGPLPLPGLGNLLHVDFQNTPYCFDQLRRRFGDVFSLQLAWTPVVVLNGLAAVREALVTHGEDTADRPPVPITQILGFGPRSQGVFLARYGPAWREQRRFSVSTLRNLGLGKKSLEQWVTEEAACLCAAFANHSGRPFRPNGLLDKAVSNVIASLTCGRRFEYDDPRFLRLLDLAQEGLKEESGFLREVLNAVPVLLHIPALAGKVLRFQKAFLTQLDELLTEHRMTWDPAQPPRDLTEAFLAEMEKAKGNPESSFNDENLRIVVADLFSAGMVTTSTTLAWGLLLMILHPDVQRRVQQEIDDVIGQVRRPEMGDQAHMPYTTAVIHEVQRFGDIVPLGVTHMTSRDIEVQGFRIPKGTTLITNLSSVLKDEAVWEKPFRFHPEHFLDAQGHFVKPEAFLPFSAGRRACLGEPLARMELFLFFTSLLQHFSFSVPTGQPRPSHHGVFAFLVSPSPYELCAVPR
smiles,measurement,setting,value
"COc1cc(-c2ccncc2)ccc1Oc1nc(Nc2ccc(C#N)cc2)ncc1CO [9i, 4-((5-(Hydroxymethyl)-4-(2-methoxy-4-(pyridin-4-yl)phenoxy)pyrimidin-2-yl)amino)benzonitrile]",SI,[1],1679
same,EC50,[2],1750 ± 123 nM
same,CC50 at 5 days,[3],30500 ± 3400 nM
same,EC50,[4],18.2 ± 6.8 nM
same,EC50,[5],217 ± 18.4 nM
same,EC50,[6],95.6 ± 17.6 nM
same,EC50,[7],560 ± 137 nM
"N#Cc1ccc(Nc2ncc(CO)c(Oc3ccc(-c4ccncc4)cc3F)n2)cc1 [9j, 4-((4-(2-Fluoro-4-(pyridin-4-yl)phenoxy)-5-(hydroxymethyl)pyrimidin-2-yl)amino)benzonitrile]",SI,[1],">10,256"
same,EC50,[2],> 48400 nM
same,CC50 at 5 days,[3],> 48400 nM
same,EC50,[4],4.7 ± 0.7 nM
same,EC50,[5],42.4 ± 6.7 nM
same,EC50,[6],35.1 ± 8.1 nM
same,EC50,[7],327 ± 44.9 nM
"N#Cc1ccc(Nc2ncc(CO)c(Oc3ccc(-c4ccncc4)cc3Cl)n2)cc1 [9k, 4-((4-(2-Chloro-4-(pyridin-4-yl)phenoxy)-5-(hydroxymethyl)pyrimidin-2-yl)amino)benzonitrile]",SI,[1],"53,539"
same,EC50,[2],43000 nM
same,CC50 at 5 days,[3],264000 ± 10200 nM
same,EC50,[4],4.9 ± 0.9 nM
same,EC50,[5],45.9 ± 5.9 nM
same,EC50,[6],35.4 ± 12.3 nM
same,EC50,[7],327 ± 54.8 nM
"N#Cc1ccc(Nc2ncc(CO)c(Oc3c(F)cc(-c4ccncc4)cc3F)n2)cc1 [9l, 4-((4-(2,6-Difluoro-4-(pyridin-4-yl)phenoxy)-5-(hydroxymethyl)pyrimidin-2-yl)amino)benzonitrile]",SI,[1],"138,219"
same,EC50,[2],720 ± 272 nM
same,CC50 at 5 days,[3],128000 ± 5500 nM
same,EC50,[4],0.9 nM
same,EC50,[5],13.6 ± 1.2 nM
same,EC50,[6],3 ± 0.3 nM
same,EC50,[7],22.2 ± 6.2 nM
"N#Cc1ccc(Nc2ncc(CO)c(Oc3ccc(-c4cccnc4)cc3F)n2)cc1 [9m, 4-((4-(2-Fluoro-4-(pyridin-3-yl)phenoxy)-5-(hydroxymethyl)pyrimidin-2-yl)amino)benzonitrile]",SI,[1],583
same,EC50,[2],> 178000 nM
same,CC50 at 5 days,[3],178000 ± 32900 nM
same,EC50,[4],306 ± 43.6 nM
same,EC50,[5],2490 ± 388 nM
same,EC50,[6],1690 ± 165 nM
same,EC50,[7],13700 ± 1140 nM
COc1ccc2c(c1)[C@]13CCCC[C@@H]1[C@H](C2)N(C)CC3 [Dextromethorphan],IC50,[8],39.7 nM
"O=C1Nc2ccc(Cl)cc2[C@@](C#CC2CC2)(C(F)(F)F)O1 [EFV, efavirenz, reference compound]",EC50,[2],290 ± 40 nM
same,CC50 at 5 days,[3],> 6300 nM
same,EC50,[4],7 nM
same,EC50,[5],6 nM
same,EC50,[6],102 ± 50 nM
same,EC50,[7],440 ± 70 nM
"Cc1cc(C#N)cc(C)c1Oc1nc(Nc2ccc(C#N)cc2)nc(N)c1Br [ETR, etravirine, reference compound]",EC50,[2],20 ± 10 nM
same,CC50 at 5 days,[3],> 4600 nM
same,EC50,[4],6 nM
same,EC50,[5],7 ± 10 nM
same,EC50,[6],3 nM
same,EC50,[7],7 nM
"Cc1ccnc2c1NC(=O)c1cccnc1N2C1CC1 [NVP, nevirapine, reference compound]",EC50,[2],> 15900 nM
same,CC50 at 5 days,[3],> 15000 nM
same,EC50,[5],2100 ± 30 nM
same,EC50,[6],> 10100 nM
same,EC50,[7],2100 ± 750 nM
